Laboratory results reported in patent US11426422B2, “SHP2 inhibitors and methods of use thereof” (Research Development Foundation, priority 2018, dated 2022).

How the values were obtained:
HFD-fed mice [1] = experiment: glucose tolerance test in HFD-fed mice; assay type: in vivo; details: 60 mg/kg daily oral gavage for 6 days; male mice fed HFD 5 weeks; 14 h fasted
Procedure: (§1) (FIG. 3A) Glucose tolerance test in 14 h fasted male mice fed a HFD for 5 weeks. […] At 1 day after drug treatment, glucose tolerance test was performed. Mean±SEM. (FIG. 3B) Insulin tolerance test of mice treated as described in FIG. 3A. Mean±SEM. […] The liver sections were stained with anti-IR (red) and DAPI (blue). Scale bars, 5 μm. (FIG. 3D) Quantification of the ratios of PM and IC IR signals of the livers in C (mean±SD; *p<0.0001). […] Cell lysates were blotted with the indicated antibodies.
(§2) The IR staining at the PM in liver sections from mice fed with HFD was weak, and insulin stimulation further reduced it and caused IR endocytosis (FIGS. 3C and D).
(§3) All animals were maintained in a specific antigen-free barrier facility with 12 h light/dark cycles (6 AM on and 6 PM off). Mice were fed a standard rodent chow (2016 Teklad Global 16% protein rodent diet, Harlan Laboratories). […] For glucose tolerance test, mice were fasted for 14 h, and their blood glucose levels (T=0) were measured with tail bleeding using a glucometer (AlphaTRAK®). […] Blood glucose levels were measured at 15, 30, 60, and 120 min after glucose injection. For insulin tolerance test, mice fasted for 4 h were injected intraperitoneally with recombinant human insulin (Eli Lilly) at 1 U/kg body weight, and their blood glucose levels were measured at 0, 15, 30 and 60 min after injection.

HFD-fed mice [2] = experiment: insulin tolerance test in HFD-fed mice; assay type: in vivo; details: 60 mg/kg daily oral gavage for 6 days; male mice fed HFD 5 weeks; insulin 1 U/kg
Procedure: as §1, §2, §3

IR in liver sections = experiment: IR staining at the PM in liver sections of HFD-fed mice; assay type: in vivo; details: 60 mg/kg oral for 6 days
Procedure: as §1, §2
The fixation, histological analysis, and immunohistochemistry of mouse tissues were performed as described previously (Choi et al., 2016). For human patient sample analysis, the deparaffinized sections were subjected to antigen retrieval with 10 mM sodium citrate (pH 6.0), incubated with 0.3% H2O2, blocked with 0.3% BSA, and then incubated first with anti-IR (CT3, Millipore®, 1:100) and anti-ZO1 (Thermo Scientific®, 1:200) antibodies and then with secondary antibodies (AlexaFluor® 568 goat anti-mouse and AlexaFluor® 488 goat anti-rabbit; Molecular Probes®). […] The total cell numbers and numbers of IR PM-positive cells were counted at least twice for individual images. Over 100 cells were analyzed for each patient samples. […]

[3] = tested on: HepG2 cells expressing IR-GFP mutants; experiment: cellular localization of IR-GFP mutants in HepG2 cells after inhibitors; assay type: cell-based; details: starved 14 h, inhibitors 4 h, no insulin
Description: FIGS. 4A-E. Dysregulation of IR endocytosis as a potential contributing factor to human insulin resistance syndromes. (FIG. 4A) Representative images of liver specimens from human non-diabetes and diabetes patients stained with DAPI (blue) and anti-IR (red) and anti-ZO-1 (green) antibodies. Scale bars, 40 μm. (FIG. 4B) Quantification of the percentage of cells with positive IR PM signals in liver specimens in FIG. 4A (mean±SD; *p<0.0001). (FIG. 4C) HepG2 cells stably expressing IR-GFP R1020Q, V1054M, A1075D, V1086E, or I1143T were serum starved and stained with anti-GFP and anti-RAB7 antibodies. Scale bar, 5 μm. (FIG. 4D) Quantification of the ratios of PM and IC IR-GFP signals of cells in FIG. 4C (mean±SD; *p<0.0001). (FIG. 4E) Targeting feedback regulation of IR endocytosis for diabetes treatment. Left panel depicts the feedback regulation of IR endocytosis by ERK1/2 and SHP2 during unperturbed insulin signaling.
FIGS. 9A-D. Characterization of IR mutations found in human patients. (FIG. 9A) HepG2 cells expressing IR-GFP Class I mutants (P997T, V1012M, A1055V, K1095E, R1119Q, H1157R, R1191Q, Y1361C, or R1378Q) were starved for 14 h, treated with the indicated inhibitors for 4 h, and stained with anti-GFP (IR; green) and DAPI (blue). Scale bar, 5 m. (FIG. 9B) HepG2 cells expressing IR-GFP Class II mutants (R1020Q, V1054M, A1075D, V1086E, or I1143T) were analyzed as described in FIG. 9A. (FIG. 9C) HepG2 cells expressing IR-GFP Class III mutants (A1162E or W1220L) were analyzed as described in A. (FIG. 9D) HepG2 cells expressing IR-GFP WT, R1020Q, or V1054M were serum starved for 14 h and treated with DMSO or 80 μM Dynasore for 4 h. Cell lysates were blotted with the indicated antibodies.
Mutations of IR are known to cause inherited severe insulin resistance syndromes, but the mechanisms by which these mutations affect IR function have not been systematically explored. HepG2 cell lines were generated which stably expressed IR mutants fused to GFP, and the subcellular localization of these IR-GFP proteins was examined (FIGS. 9A-C and Table 1).
There were three distinct classes of IR mutants based on their subcellular localization in the unstimulated state. Class I mutants localized to the PM. […] Thus, certain IR mutations found in human insulin resistance syndromes perturbs IR kinase regulation and causes premature IR endocytosis.
Cellular localization of IR mutants was examined after inhibiting the SHP2 or MAPK pathways (FIGS. 4C-D, and FIGS. 9A-C).
Indirect immunofluorescence microscopy was performed on cells grown on coverslips and fixed in cold methanol at −20° C. for 10 min. The fixed cells were incubated with PBS for 30 min and 3% BSA in 0.1% PBST for 1 h, and then treated with diluted antibodies in 0.3% BSA in 0.1% PBST at 4° C. overnight. After being washed, cells were incubated with fluorescent secondary antibodies and mounted on microscope slides in ProLong Gold Antifade reagent with DAPI (Invitrogen). Images of fixed cells were acquired as a series of 0.4 m stacks with a DeltaVision® system (Applied Precision®, Issaquah, Wash.). Raw images were deconvolved using the iterative algorithm implemented in the softWoRx® software (Applied Precision®, Issaquash, Wash.). The central section of a 0.4 μm z-stack containing 3 contiguous focal planes was used for quantification. The cell edges were defined with Image J. The whole cell signal intensity (WC) and intracellular signal intensity (IC) were measured. The plasma membrane signal intensity (PM) was calculated by subtracting IC from WC. Identical exposure times and magnifications were used for all comparative analyses.

SMILES: CC1(N)CCN(c2cnc(-c3cccc(Cl)c3Cl)c(N)n2)CC1 [SHP099]
- glucose tolerance (HFD-fed mice [1]): markedly increased glucose tolerance
- insulin sensitivity (HFD-fed mice [2]): markedly increased
- insulin-activated IR endocytosis in liver (IR in liver sections; 5 U insulin via inferior vena cava): blocked insulin-activated IR endocytosis
- IR signal at the PM in liver (IR in liver sections; in the absence of insulin): elevated the IR signal at the PM
- PM levels of Class I and III IR mutants [3]: not those of Class I and III IR mutants
- PM levels of Class II IR mutants ([3]; R1020Q, V1054M, A1075D, V1086E, I1143T): significantly enhanced the PM levels of Class II IR mutants
